Laboratory results taken from patent publication US9907765B2, “Treatment of connective tissue diseases of the skin” (Cipher Pharmaceuticals, Inc., priority 2005, dated 2018).

What was measured:
[1] = test system: patients suffering from discoid Lupus Erythematosus; assay: Topical treatment of cutaneous manifestations in patients with discoid Lupus Erythematosus; format: in vivo, human; details: patient with Discoid Lupus Erythematosus, after 3 weeks treatment
Text: (§1) Examples 2 to 5 concern the treatment of cutaneous manifestation in patients suffering from discoid Lupus Erythematosus or subacute Lupus Erythematosus with the topical composition of Example 1 under the control of a medical doctor of Bispebjerg Hospital, Denmark. The composition was applied to affected areas once or twice per day.
A person had been suffering from discoid Lupus Erythematosus for 18 years. Their arms were somewhat affected and the fingers were severely affected with acrocyanosis. During the years, the person had regularly been treated with strong topical steroids, but with limited effect.
During an aggravation of the disease, which especially affected the fingers, the person initiated a treatment with the emulsion according to example 1 on the fingers.
A person had been suffering from discoid Lupus Erythematosus for 6 years. The symptoms started on the chin, but had spread to most of the face.
During an aggravation of the symptoms, the subject initiated a twice daily treatment with the emulsion according to example 1.
A person had been suffering from discoid Lupus Erythematosus for 32 years. The disease was very severe with a strong affection of the arms and the back and with elements spread to other parts of the body. The person had been treated with ercoquin and strong topical corticosteroids, but with limited effect. […]

[2] = test system: patients suffering from subacute Lupus Erythematosus; assay: Topical treatment of cutaneous manifestations in patients with subacute Lupus Erythematosus; format: in vivo, human; details: patient with Sub-acute Cutaneous Lupus Erythematosus, after 8 weeks of treatment
Text: as §1
A person had been suffering from subacute Lupus Erythematosus for 16 years. The subject was affected on large areas of the body with elements on the back, the breast and the face.
The person has previously been treated with oral prednisolone, chlorochin, thalidomide and strong topical steroids, but all with limited or no effect.
During an aggravation of the symptoms, the person initiated a twice daily treatment with the emulsion according to example 1.

[3] = test system: Albino guinea pigs of Dunkin-Hartley strain; assay: Skin sensitization test according to the Magnusson and Kligman method (O.E.C.D. Guideline No 406); format: in vivo, guinea pig
Experimental: Assessment of sensitising properties of R-salbutamol. Test for skin sensitization is carried out according to the Magnusson and Kligman method (J. Invest. Dermatol. 1969. 52, 268-276) and in accordance with O.E.C.D. Guideline No 406 of Jul. 17, 1992, and the test method B.6 of the 96/54 E.E.C Directive. The test item (R-salbutamol as the sulphate salt) was diluted with distilled water to prepare a concentration of 0.5% (w/v). Albino guinea pigs of Dunkin-Hartley strain were exposed to the test item after an acclimatisation period of at least five days. The Maximum Non Necrotizing Concentration (M.N.N.C.) was determined by injecting by intradermal route the following concentrations of the test item 0.25%, 0.125%, 0.0625%, 0.0312% and 0.0156% diluted in physiological saline solution. Pre-Maximum Non Irritant Concentration (pre-M.N.I.C.) was determined by application of the test item under an occlusive dressing during 24 hours, at the following concentrations: 0.5%, 0.25%, 0.125% and 0.0625% diluted in physiological saline solution. Maximum Non Irritant Concentration (M.N.I.C.) was determined by initially establishing an induction phase by intradermal injection with a physiological saline solution and by topical application of distilled water followed by a 18-day rest phase. […]

Compound	improvement of inflamed lesions [1]	remission of the cutaneous symptoms [2]	macroscopic cutaneous reactions attributable to allergy ([3]; challenge phase, after removal of 24 h occlusive dressing, induction with test item at 0.5%)	skin sensitization following topical application ([3]; topical application to skin)
1-[[(1,1-Dimethylethyl)amino]methyl]-4-hydroxy-1,3-benzenedimethanol [Salbutamol]	significant improvement	complete remission		
CC(C)(C)NC[C@H](O)c1ccc(O)c(CO)c1 [R-salbutamol]			No macroscopic cutaneous reactions attributable to allergy	does not confer skin sensitization
